# The source made the active and inactive calls. The calls are words filed in the database; no cut-off is given here.
# Legend:
# Acinetobacter baumannii [1] = assay: Antimicrobial activity against multidrug-resistant Acinetobacter baumannii BAA-1605 after 16 hrs by broth microdilution method; type: functional; details: BAA-1605, 16 h
# Staphylococcus aureus [2] = assay: Antimicrobial activity against methicillin-susceptible Staphylococcus aureus ATCC 29213 after 16 hrs by broth microdilution method; type: functional; details: ATCC 29213, 16 h
# Acinetobacter baumannii [3] = assay: Antimicrobial activity against Acinetobacter baumannii ATCC 19606 after 16 hrs by broth microdilution method; type: functional; details: ATCC 19606 = CIP 70.34 = JCM 6841, 16 h
# Klebsiella pneumoniae = assay: Antimicrobial activity against carbapenem-resistant Klebsiella pneumoniae BAA-2146 expressing […] gene after 16 hrs by broth microdilution method; type: functional; details: BAA-2146, 16 h
# Escherichia coli [4] = assay: Antimicrobial activity against Escherichia coli ATCC 35695 after 16 hrs by broth microdilution method; type: functional; details: ATCC 35695, 16 h
# [5] = test system: Staphylococcus epidermidis; assay: Antimicrobial activity against Staphylococcus epidermidis ATCC 29886 after 16 hrs by broth microdilution method; type: functional; details: ATCC 29886, 16 h
# Staphylococcus aureus [6] = assay: Antimicrobial activity against methicillin-resistant Staphylococcus aureus BAA-44 after 16 hrs by broth microdilution method; type: functional; details: BAA-44, 16 h
# [7] = test system: Staphylococcus epidermidis; assay: Antimicrobial activity against methicillin-resistant Staphylococcus epidermidis ATCC 51625 after 16 hrs by broth microdilution method; type: functional; details: ATCC 51625, 16 h
# Acinetobacter baumannii [8] = assay: Inhibition of Acinetobacter baumannii ATCC 19606 biofilm formation after 24 hrs by crystal violet reporter assay; type: functional, ATCC 19606 = CIP 70.34 = JCM 6841; further: test concentration or dose not given here
# Staphylococcus aureus [9] = assay: Inhibition of Staphylococcus aureus ATCC 29213 biofilm formation after 24 hrs by crystal violet reporter assay; type: functional; further: test concentration or dose not given here
# Escherichia coli [10] = assay: Inhibition of Escherichia coli ATCC 35695 biofilm formation after 24 hrs by crystal violet reporter assay; type: functional; further: test concentration or dose not given here
# Staphylococcus aureus [11] = assay: Inhibition of Staphylococcus aureus BAA-44 biofilm formation after 24 hrs by crystal violet reporter assay; type: functional; further: test concentration or dose not given here
# Acinetobacter baumannii [12] = assay: Inhibition of Acinetobacter baumannii BAA-1605 biofilm formation after 24 hrs by crystal violet reporter assay; type: functional; on INH: test concentration or dose not given here
SMILES,MIC (Acinetobacter baumannii [1]) [µg/mL],MIC (Staphylococcus aureus [2]) [µg/mL],MIC (Acinetobacter baumannii [3]) [µg/mL],MIC (Klebsiella pneumoniae) [µg/mL],MIC (Escherichia coli [4]) [µg/mL],MIC [5] [µg/mL],MIC (Staphylococcus aureus [6]) [µg/mL],MIC [7] [µg/mL],inhibition (INH) (Acinetobacter baumannii [8]) [%],inhibition (INH) (Staphylococcus aureus [9]) [%],inhibition (INH) (Escherichia coli [10]) [%],inhibition (INH) (Staphylococcus aureus [11]) [%],inhibition (INH) (Acinetobacter baumannii [12]) [%],inhibition (Acinetobacter baumannii [12])
CCCCCn1c(-c2ccccc2)cnc1N.Cl,64,64,64,> 128,128,16,64,128,–,–,–,–,–,–
CCCCCCc1cnc(N)n1Cc1ccccc1.Cl,16,16,16,64,32,16,32,16,–,–,–,–,–,–
CCCCCCCCn1c(CCCCNC(=O)OCc2ccccc2)cnc1N.Cl,64,16,64,128,8,2,16,16,93,91,90,84,91,–
CCCCCn1c(Cc2ccccc2)cnc1N.Cl,64,64,64,128,64,32,128,64,–,–,–,–,–,–
Cl.Nc1ncc(-c2ccccc2)n1Cc1ccccc1,16,8,128,128,8,2,4,8,96,93,89,95,97,–
CCCCCCc1cnc(N)n1CCCCC.Cl,64,32,64,64,32,8,32,32,97,92,97,98,–,inactive
CCCCCn1c(CCCCNC(=O)OCc2ccccc2)cnc1N.Cl,128,32,128,> 128,32,16,128,64,–,–,–,–,–,–
Cl.Nc1ncc(Cc2ccccc2)n1CCCc1ccccc1,32,32,32,128,32,16,32,16,96,98,97,90,94,–
CCCCCCCCn1c(Cc2ccccc2)cnc1N.Cl,128,128,128,> 128,128,128,128,128,–,–,–,–,–,–
CC(C)Cc1cnc(N)n1Cc1ccccc1.Cl,128,128,128,128,128,16,128,128,–,–,–,–,–,–
Cl.Nc1ncc(-c2ccccc2)n1CCCc1ccccc1,32,32,32,128,32,8,32,32,97,95,94,94,97,–

# From ChEMBL document CHEMBL1806468, “A facile synthesis of 1,5-disubstituted-2-aminoimidazoles: antibiotic activity of a first generation library” (2011)
